Measurements: patent US20210145811A1, “TREATMENT OF CANCER WITH EXON 14 SKIPPING MUTATION(S) OR EXON 14 SKIPPING PHENOTYPE” (Eli Lilly and Company, priority 2016, published 2021)

Assays:
[1] = test system: Hs746t cells; experiment: Cell proliferation assay (CELL TITER-GLO); format: cell-based; conditions: Homo sapiens, 120 h, 5 days exposure, n=2, read-out: IC50 in vitro Hs746t cell proliferation
Experimental: Hs746t cells are seeded onto poly-D-lysine, 96-well plates, 3000 cells/well and allowed to attach overnight in a 37° C. with 5% CO2 incubator. Merestinib is serially diluted 1:3 and added to the cells in triplicate. After 120 hours, cell viability is measured with the CELL TITER-GLO® Luminescent Cell Viability Assay (Promega), following manufacturer directions. The data are analyzed with GraphPad Prism v6 software. The assay is performed in duplicate experiments.

[2] = Body weight and health in Hs746t xenograft study; format: in vivo, mouse; conditions: groups treated with merestinib (6 or 12 mg/kg)
Experimental: (§1) Female athymic nude mice (Envigo) are used for this study. Food and water are available ad libitum. Animals are acclimated for 1 week prior to any experimental manipulation. The study is performed in accordance with AAALAC accredited institutional guidelines.
(§2) Hs746t cells are expanded in culture, harvested, and washed in Hank's Balanced Salt Solution (HBSS, GIBCO®). Approximately 5×10^6 cells in HBSS are implanted subcutaneously into the hind flank of the animal. When tumors reach an average size of 150 to 200 mm^3, the animals are randomized into groups of 7. Merestinib is prepared and administered via oral gavage at 6 or 12 mg/kg doses on a once daily schedule for 21 days.
Tumor volumes and body weight are measured bi-weekly. Statistical analysis is performed when 3 of the 7 vehicle treated animals hed been removed from the study due to tumor burden. Tumor volume is transformed to the log scale to equalize variance across time and treatment groups. The log volume data are analyzed with a two-way repeated measures analysis of variance by time and treatment using the MIXED procedures in SAS software (Version 9.3). The correlation model for the repeated measures is spatial power. Treated groups are compared to the control group at each time point. The MIXED procedure is also used separately for each treatment group to calculate adjusted means and standard errors at each time point. […]

[3] = target: T1, phospho-MET (Y1234/1235) (Homo sapiens, UniProt P08581, DEL964-1010); experiment: Western blotting of phospho-MET in Hs746t cells; format: cell-based; conditions: Hs746t cells (MET exon 14 skipping), 2 hours incubation, Western blot
T1 construct: Western blots performed on lysates from in vitro cultured cells confirm a strong band corresponding to MET protein; host or cells: Hs746t
Experimental: (§3) Hs746t cells are obtained from ATCC® (Manassas, Va.) and are maintained in DMEM Medium with L-glutamine and 10% fetal bovine serum (FBS). MKN45 cells, expressing wild-type MET, are obtained from JCRB Cell Bank (Japan) and are maintained in RPMI 1640 Medium with L-glutamine, 10% FBS, and sodium pyruvate. Cells are grown at 37° C. with 5% CO2. Cells are seeded into 6-well plates, 1 million cells/well, and incubated overnight. Cells are incubated with merestinib for 2 hours, then are lysed in radioimmunoprecipitation assay (RIPA) buffer containing protease inhibitors. Protein concentrations of cell lysates are measured with the DC™ Protein Assay (BioRad), following manufacturer directions. Lysates are electrophoresed on Novex® 4-20% Tris Glycine gels (Invitrogen), and are transferred onto polyvinylidene difluoride (PVDF) membranes. The blots are probed for total MET (clone D1C2, CELL SIGNALING TECHNOLOGY®, Cat #8198), phospho-MET (Y1234/1235, clone D26, CELL SIGNALING TECHNOLOGY®, Cat #3077), and phospho-MET (Y1003, clone 13D11, CELL SIGNALING TECHNOLOGY®, Cat #3135). Monoclonal Anti-β-Actin (clone AC-15, SIGMA-ALDRICH®, Cat #A5441) is used as a loading control. After incubating with horseradish peroxidase (HRP)-linked secondary antibodies, blots are developed with chemiluminescent substrate and imaged on a Lumi-Imager (Roche).

[4] = target: T2, phospho-MET (Y1234/1235) (Homo sapiens, UniProt P08581); experiment: Western blotting of phospho-MET in MKN45 cells; format: cell-based; conditions: MKN45 cells (wild-type MET), 2 hours incubation, Western blot
T2 construct: MKN45 cells, expressing wild-type MET; host or cells: MKN45
Experimental: as §3

[5] = test system: Hs746t-derived xenograft; experiment: In vivo Hs746t xenograft model; set-up: species or system mouse
Experimental: as §1
Merestinib is formulated as a solution in 10% PEG 400/90% (20% Captisol in water). Solution is freshly prepared every 7 days.
as §2, with “Merestinib is prepared and administered via oral gavage at 6 or 12 mg/kg doses on a once daily schedule for 21 days.” left out
Animals are sacrificed using CO2 and cervical dislocation when tumors grew larger than 2000 mm^3.
Tumor volumes and body weight are measured bi-weekly. Statistical analysis is performed when 3 of the 7 vehicle treated animals hed been removed from the study due to tumor burden. Tumor volume is transformed to the log scale to equalize variance across time and treatment groups. The log volume data are analyzed with a two-way repeated measures analysis of variance by time and treatment using the MIXED procedures in SAS software (Version 9.3). The correlation model for the repeated measures is spatial power. Treated groups are compared to the control group at each time point. The MIXED procedure is also used separately for each treatment group to calculate adjusted means and standard errors at each time point. Both analyses account for the autocorrelation within each animal and the loss of data that occurs when animals are removed or lost before the end of the study. The adjusted means and standard errors are plotted for each treatment group versus time.
Measure tumor growth with calipers. Calculate tumor volumes by the formula Volume (mm^3)=L×W^2 (π/6) where L represents the larger diameter and W the smaller diameter. Calculate T/C % using the formula T/C %=100×ΔT/ΔC. Where ΔT=mean tumor volume of the drug-treated group on the final day of the study−mean tumor volume of the drug-treated group on the initial day of the dosing and ΔC=mean tumor volume of the control group on the final day of the study−mean tumor volume of the control group on the initial day of the dosing. Calculate changes in body weight by the formula (Weight on observation day−Weight on day 12)/Weight on Day 12×100.

phosphorylated MET at the Y1234/1235 position [3]: inhibited
phosphorylated MET at the Y1234/1235 position [4]: inhibited
Structure (SMILES): Cc1ccc(C(=O)Nc2ccc(Oc3cc4cnn(C)c4cc3-c3cn[nH]c3)c(F)c2)c(=O)n1-c1ccc(F)cc1 [merestinib, N-(3-Fluoro-4-(1-methyl-6-(1H-pyrazol-4-yl)-1H-indazol-5-yloxy)phenyl)-1-(4-fluorophenyl)-6-methyl-2-oxo-1,2-dihydropyridine-3-carboxamide]
IC50 [1]: 33.4 nM
health issues in the animals [2]: no noticeable health issues
tumors showing signs of regrowth (2 consecutively larger tumor volume measurements) ([5]; 6 mg/kg oral gavage once daily, end of study): 5 of the 7
anti-tumor activity T/C ([5]; 6 mg/kg oral gavage once daily, end of study, p=0.033 vs vehicle): 18.3%
tumor regression ([5]; 12 mg/kg oral gavage once daily, to the end of the study): 91.8%
tumor re-growth after treatment is terminated ([5]; 12 mg/kg, 5 weeks after treatment terminated): no tumor re-growth was observed
animals that are complete responders ([5]; 12 mg/kg, 64 days of dosing): 6 of the 7
tumor re-growth during treatment (treatment resistance) ([5]; 12 mg/kg, within 2 months of treatment): No tumor re-growth is observed
